Data as given in publication PMC10302047, “Structure–Activity Relationship Studies of Indolglyoxyl-Polyamine Conjugates as Antimicrobials and Antibiotic Potentiators” (Pharmaceuticals, 2023).
In brackets after ≈: the same amount, converted by molar mass. Like-named read-outs stand apart in the source and are kept apart here. Marks after values point to notes of the source that are not given here.

Legend:
MRSA ATCC 43300 = assay: Antimicrobial susceptibility (MIC), MRSA; format: cell-based; conditions: Staphylococcus aureus; MRSA ATCC 43300; mean (n = 2); read-out: MIC MRSA
Experimental: (§1) The susceptibility of bacterial strains S. aureus (ATCC 25923), E. coli (ATCC 25922) and P. aeruginosa (ATCC 27853) to antibiotics and compounds was determined according to previously reported protocols. Additional antimicrobial evaluation against MRSA (ATCC 43300) and C. albicans (ATCC 90028) was undertaken at the Community for Open Antimicrobial Drug Discovery at The University of Queensland (Australia) according to their standard protocols as reported previously.

human red blood cells = assay: Hemolytic assay; format: cell-based; conditions: mean (n = 2)
Experimental: Hemolysis assays were conducted according to previously reported protocols.

S. aureus ATCC 25923 [1] = conditions: S. aureus ATCC 25923; ref Cadelis et al. [16]; cited from earlier work
P. aeruginosa ATCC 27853 [2] = tested on: P. aeruginosa ATCC 27853; design: method as in Cadelis et al. [16]; conditions: ref Cadelis et al. [16]; cited from earlier work
E. coli ATCC 25922 [3] = tested on: E. coli ATCC 25922; design: method as in Cadelis et al. [16]; conditions: ref Cadelis et al. [16]; cited from earlier work
C. albicans ATCC 90028 [4] = tested on: C. albicans ATCC 90028; design: method as in Cadelis et al. [16]; conditions: ref Cadelis et al. [16]; cited from earlier work
[5] = tested on: HEK293 (human embryonic kidney cells); conditions: HEK293; ref Cadelis et al. [16]; read-out: Cyto. IC50 (concentration of compound at 50% cytotoxicity); cited from earlier work
P. aeruginosa ATCC 27853 [6] = conditions: doxycycline at 2 µg/mL (4.5 µM), P. aeruginosa ATCC 27853; ref Cadelis et al. [16]; cited from earlier work
S. aureus ATCC 25923 [7] = assay: Antimicrobial susceptibility (MIC), S. aureus; format: cell-based, Staphylococcus aureus; conditions: Staphylococcus aureus, ATCC25923; S. aureus ATCC 25923; mean (n = 3)
Experimental: as §1

P. aeruginosa ATCC 27853 [8] = assay: Antimicrobial susceptibility (MIC), P. aeruginosa; format: cell-based; conditions: Pseudomonas aeruginosa, ATCC27853, mean (n = 3), read-out: MIC P. a
Experimental: as §1

E. coli ATCC 25922 [9] = assay: Antimicrobial susceptibility (MIC), E. coli; format: cell-based; conditions: Escherichia coli, ATCC25922, mean (n = 3)
Experimental: as §1

C. albicans ATCC 90028 [10] = assay: Antifungal susceptibility (MIC), C. albicans; format: cell-based; conditions: Candida albicans, ATCC90028, mean (n = 2)
Experimental: as §1

[11] = Cytotoxicity assay HEK293; format: cell-based, human; conditions: human, HEK293 cells, mean (n = 2), read-out: Cyto. IC50 (concentration of compound at 50% cytotoxicity)
Experimental: Cytotoxicity assays were conducted according to previously reported protocols.

P. aeruginosa ATCC 27853 [12] = assay: Antibiotic potentiation (MIC of antibiotics in the presence of synergizing compounds), P. aeruginosa; format: cell-based, Pseudomonas aeruginosa; conditions: concentration required to restore doxycycline activity at 2 µg/mL (4.5 µM) against P. aeruginosa ATCC 27853

| SMILES | MIC (MRSA ATCC 43300) [µM] | Hem. HC10 (concentration of compound at 10% hemolytic activity) (human red blood cells) [µM] | MIC S. a (S. aureus ATCC 25923 [1]) | MIC P. a (P. aeruginosa ATCC 27853 [2]) | MIC E. c (E. coli ATCC 25922 [3]) | MIC C. a (C. albicans ATCC 90028 [4]) | IC50 [5] [µM] | Conc (µM) for Potentiation of doxycycline (P. aeruginosa ATCC 27853 [6]) | MIC (S. aureus ATCC 25923 [7]) [µM] | MIC (P. aeruginosa ATCC 27853 [8]) [µM] | MIC (E. coli ATCC 25922 [9]) [µM] | MIC (C. albicans ATCC 90028 [10]) [µM] | IC50 [11] [µM] | Conc (µM) for Potentiation of doxycycline (P. aeruginosa ATCC 27853 [12]) [µM] |
| --- | --- | --- | --- | --- | --- | --- | --- | --- | --- | --- | --- | --- | --- | --- |
| COc1cccc2c(C(=O)C(=O)NCCCNCCCCNCCCNC(=O)C(=O)c3c[nH]c4c(OC)cccc34)c[nH]c12 [Compound 7] | 38.4 (≈ 23.2 µg/mL) | >38 | 15 ^h µM | >200 ^h µM | >200 ^h µM | 38.4 ^h µM | 27 | 3.75 ^b µM |  |  |  |  |  |  |
| O=C(NCCCNCCCCNCCCNC(=O)C(=O)c1c[nH]c2ccc(Br)cc12)C(=O)c1c[nH]c2ccc(Br)cc12 [Compound 3] | 4.32 (≈ 3.03 µg/mL) | >34 | 3.125 ^h µM | 50 ^h µM | 25 ^h µM | >34.4 ^h µM | 14 | 3.125 ^b µM |  |  |  |  |  |  |
| COc1ccc2[nH]cc(C(=O)C(=O)NCCCNCCCCNCCCNC(=O)C(=O)c3c[nH]c4ccc(OC)cc34)c2c1 [Compound 4] | 38.4 (≈ 23.2 µg/mL) | >38 | 100 ^h µM | >200 ^h µM | >200 ^h µM | >38.4 ^h µM | > 38 | 12.5 ^b µM |  |  |  |  |  |  |
| O=C(NCCCNCCCCNCCCNC(=O)C(=O)c1c[nH]c2c(F)cccc12)C(=O)c1c[nH]c2c(F)cccc12 [Compound 6] | 19.8 (≈ 11.5 µg/mL) | >40 | 25 ^h µM | 200 ^h µM | 200 ^h µM | >39.6 ^h µM | 19 | 3.125 ^b µM |  |  |  |  |  |  |
| O=C(NCCCNCCCCNCCCNC(=O)C(=O)c1c[nH]c2ccccc12)C(=O)c1c[nH]c2ccccc12 [Compound 2] | 41.4 (≈ 22.5 µg/mL) | >41 | >100 ^h µM | >100 ^h µM | >100 ^h µM | >41.4 ^h µM | > 41 |  |  |  |  |  |  |  |
| O=C(NCCCNCCCCCCCCCCNCCCNC(=O)C(=O)c1c[nH]c2c(F)cccc12)C(=O)c1c[nH]c2c(F)cccc12.O=C(O)C(F)(F)F.O=C(O)C(F)(F)F [Compound 21d, N^1,N^10-Bis(3-(2-(7-fluoro-1H-indol-3-yl)-2-oxoacetamido)propyl)decane-1,10-diaminium 2,2,2-trifluoroacetate] | 4.48 | >36 |  |  |  |  |  |  | 3.12 | > 200 | 6.25 | 36 | 4.7 | 100 |
| COc1ccc2[nH]cc(C(=O)C(=O)NCCCNCCCCCCCCCCNCCCNC(=O)C(=O)c3c[nH]c4ccc(OC)cc34)c2c1.O=C(O)C(F)(F)F.O=C(O)C(F)(F)F [Compound 19d, N^1,N^10-Bis(3-(2-(5-methoxy-1H-indol-3-yl)-2-oxoacetamido)propyl)decane-1,10-diaminium 2,2,2-trifluoroacetate] | 17.4 | >35 |  |  |  |  |  |  | 12.5 | > 200 | 50 | 35 | 6.8 | >200 |
| O=C(NCCCNCCCCCCCNCCCNC(=O)C(=O)c1c[nH]c2ccccc12)C(=O)c1c[nH]c2ccccc12.O=C(O)C(F)(F)F.O=C(O)C(F)(F)F [Compound 17b, N^1,N^7-Bis(3-(2-(1H-indol-3-yl)-2-oxoacetamido)propyl)heptane-1,7-diaminium 2,2,2-trifluoroacetate] | 39 | >39 |  |  |  |  |  |  | 25 | > 200 | 25 | > 39 | 31 | 100 |
| O=C(NCCCNCCCCCCCCNCCCNC(=O)C(=O)c1c[nH]c2ccc(Br)cc12)C(=O)c1c[nH]c2ccc(Br)cc12.O=C(O)C(F)(F)F.O=C(O)C(F)(F)F [Compound 18c, N^1,N^8-Bis(3-(2-(5-bromo-1H-indol-3-yl)-2-oxoacetamido)propyl)octane-1,8-diaminium 2,2,2-trifluoroacetate] | 8.1 | >32 |  |  |  |  |  |  | 25 | > 200 | > 200 | 32 | 18 | >200 |
| COc1cccc2c(C(=O)C(=O)NCCCNCCCCCCCNCCCNC(=O)C(=O)c3c[nH]c4c(OC)cccc34)c[nH]c12.O=C(O)C(F)(F)F.O=C(O)C(F)(F)F [Compound 22b, N^1,N^7-Bis(3-(2-(7-methoxy-1H-indol-3-yl)-2-oxoacetamido)propyl)heptane-1,7-diaminium 2,2,2-trifluoroacetate] | > 37 | >37 |  |  |  |  |  |  | 25 | 800 | 200 | > 37 | 8.9 | 100 |
| O=C(NCCCNCCCCCCCCCCCCNCCCNC(=O)C(=O)c1c[nH]c2ccccc12)C(=O)c1c[nH]c2ccccc12 [Compound 17e] | 9.04 (≈ 5.94 µg/mL) | >36 |  |  |  |  |  |  | 25 (≈ 16.4 µg/mL) | > 200 | > 200 | 36 (≈ 23.6 µg/mL) | 5.6 | 6.25 |
| O=C(NCCCNCCCCCCCCCCNCCCNC(=O)C(=O)c1c[nH]c2ccc(Br)cc12)C(=O)c1c[nH]c2ccc(Br)cc12.O=C(O)C(F)(F)F.O=C(O)C(F)(F)F [Compound 18d, N^1,N^10-Bis(3-(2-(5-bromo-1H-indol-3-yl)-2-oxoacetamido)propyl)decane-1,10-diaminium 2,2,2-trifluoroacetate] | 7.88 | >32 |  |  |  |  |  |  | 6.16 | 200 | 98 | 32 | 16 | 25 |
| O=C(NCCCNCCCCCCCCCCCCNCCCNC(=O)C(=O)c1c[nH]c2ccc(Br)cc12)C(=O)c1c[nH]c2ccc(Br)cc12.O=C(O)C(F)(F)F.O=C(O)C(F)(F)F [Compound 18e, N^1,N^12-Bis(3-(2-(5-bromo-1H-indol-3-yl)-2-oxoacetamido)propyl)dodecane-1,12-diaminium 2,2,2-trifluoroacetate] | 3.84 | 20 |  |  |  |  |  |  | 5.99 | 96 | 24 | 31 | 8.6 | 24 |
